Experimental data: patent publication US9388142B2, “Quinazolinone derivatives as PARP inhibitors” (MERCK PATENT GMBH, priority 2012, dated 2016)

Assays:
[1] = molecular target: T1, GST-tagged Tnks-1 (1023-1327 aa) (Homo sapiens, UniProt O95271); experiment: TNKS1 activity ELISA (autoparsylation assay); assay type: biochemical; conditions: read-out: IC50 TNKS1 ELISA
T1 construct: GST-tagged Tnks-1 (1023-1327 aa, prepared in-house); made in house
Protocol: Description of the TNKS1 and TNKS2 ELISA Assay
Then the activity assay with biotinylated NAD is performed in the absence/presence of the compounds. During the enzymatic reaction GST tagged TNKS transfers biotinylated ADP-ribose to itself from biotinylated NAD as co-substrate. For the detection streptavidin-HRP conjugate is added that binds to the biotinylated TNKS and is thereby captured to the plates. The amount of biotinylated resp. autoparsylated TNKS is detected with a luminescence substrate for HRP. The level of the luminescence signal correlates directly with the amount of autoparsylated TNKS and therefore with activity of TNKS.
The activity ELISA is performed in 384 well Glutathione coated microtiter plates (Express capture Glutathione coated plate, Biocat, Heidelberg, Germany). The plates are pre-equilibrated with PBS. […] The plates are washed 3 times with PBS-Tween-20. The wells are blocked by incubation at room temperature for 20 minutes with 50 μl blocking buffer (PBS, 0.05% Tween-20, 0.5% BSA). Afterwards the plates are washed 3 times with PBS-Tween-20. […] The reaction is stopped by 3 times washing with PBS-Tween-20. For the detection 50 μl of 20 ng/μl Streptavidin, HRP conjugate (MoBiTec, Gottingen, Germany) in PBS/0.05% Tween-20/0.01% BSA are added and the plates are incubated for 30 minutes at room temperature. After three times washing with PBS-Tween-20 50 μl of SuperSignal ELISA Femto Maximum sensitivity substrate solution (ThermoFisherScientific (Pierce), Bonn, Germany) are added. Following a 1 minute incubation at room temperature luminescence signals are measured with an Envision multimode reader (Perkin Elmer LAS Germany GmbH) at 700 nm. The full value used is the inhibitor-free reaction. […] The inhibitory values (IC50) are determined using either the program Symyx Assay Explorer® or Condosseo® from GeneData.

His-tagged Parp-1 = molecular target: T2, His-tagged Parp-1 (Homo sapiens, UniProt P09874); experiment: PARP-1 autoparsylation assay (HTRF); assay type: biochemical
T2 construct: purchased Enzo Life Sciences GmbH, Lörrach, Germany
T2 sequence (P09874 whole entry): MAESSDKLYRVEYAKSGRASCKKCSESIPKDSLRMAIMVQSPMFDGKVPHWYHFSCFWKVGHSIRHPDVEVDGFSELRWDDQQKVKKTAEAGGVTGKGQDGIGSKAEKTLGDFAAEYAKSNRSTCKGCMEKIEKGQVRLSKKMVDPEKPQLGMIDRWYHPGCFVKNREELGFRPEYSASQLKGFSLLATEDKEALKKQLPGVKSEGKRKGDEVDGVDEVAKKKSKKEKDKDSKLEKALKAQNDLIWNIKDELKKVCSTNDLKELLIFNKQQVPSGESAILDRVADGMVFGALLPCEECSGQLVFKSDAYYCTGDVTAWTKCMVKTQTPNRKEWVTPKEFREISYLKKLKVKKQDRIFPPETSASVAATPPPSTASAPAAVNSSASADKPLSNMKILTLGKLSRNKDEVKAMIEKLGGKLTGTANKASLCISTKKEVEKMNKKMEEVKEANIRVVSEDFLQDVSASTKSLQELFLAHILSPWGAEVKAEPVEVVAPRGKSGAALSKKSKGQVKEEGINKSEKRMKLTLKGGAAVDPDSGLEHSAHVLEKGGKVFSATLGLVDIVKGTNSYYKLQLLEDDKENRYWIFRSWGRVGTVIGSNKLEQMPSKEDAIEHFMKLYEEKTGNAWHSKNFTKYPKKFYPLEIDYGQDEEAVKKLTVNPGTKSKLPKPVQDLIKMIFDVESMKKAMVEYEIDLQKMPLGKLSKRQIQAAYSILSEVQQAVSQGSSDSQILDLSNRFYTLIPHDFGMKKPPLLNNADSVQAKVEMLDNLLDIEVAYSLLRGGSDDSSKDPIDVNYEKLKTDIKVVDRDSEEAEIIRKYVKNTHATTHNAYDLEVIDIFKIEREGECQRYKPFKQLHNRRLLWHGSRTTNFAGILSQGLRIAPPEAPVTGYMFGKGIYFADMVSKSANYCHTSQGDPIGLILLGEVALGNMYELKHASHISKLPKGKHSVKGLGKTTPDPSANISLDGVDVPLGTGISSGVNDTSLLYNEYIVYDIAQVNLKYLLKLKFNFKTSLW
From the text: Description of the PARP1 Assay
Biochemical Activity Testing of PARP-1: Autoparsylation Assay
The autoparsylation assay is run in two steps: the enzymatic reaction in which His-tagged Parp-1 transfers biotinylated ADP-ribose/ADP-ribose to itself from biotinylated NAD/NAD as co-substrate and the detection reaction where a time resolved FRET between cryptate labelled anti-His antibody bound to the His tag of the enzyme and Xlent® labelled-streptavidin bound the biotin-parsylation residue is analysed. The autoparsylation activity is detectable directly via the increase in HTRF signal.
The autoparsylation assay is performed as 384-well HTRF® (Cisbio, Codolet, France) assay format in Greiner low volume nb 384-well microtiter plates. 35 nM His-tagged Parp-1 (human, recombinant, Enzo Life Sciences GmbH, Lörrach, Germany) and a mixture of 125 nM bio-NAD (Biolog, Life science Inst., Bremen, Germany) and 800 nM NAD as co-substrate are incubated in a total volume of 6 μl (100 mM Tris/HCl, 4 mM Mg-chloride, 0.01% IGEPAL® CA630, 1 mM DTT, 0.5% DMSO, pH 8, 13 ng/μl activated DNA (BPS Bioscience, San Diego, US)) in the absence or presence of the test compound (10 dilution concentrations) for 150 min at 23° C. The reaction is stopped by the addition of 4 μl of the Stop/detection solution (70 nM SA-Xlent® (Cisbio, Codolet, France), 2.5 nM Anti-His-K® (Eu-labelled anti-His, Cisbio, Codolet, France) in 50 mM HEPES, 400 mM KF, 0.1% BSA, 20 mM EDTA, pH 7.0). After 1 h incubation at room temperature the HTRF iss measured with an Envision multimode reader (Perkin Elmer LAS Germany GmbH) at excitation wavelength 340 nm (laser mode) and emission wavelengths 615 nm and 665 nm. The ratio of the emission signals is determined. The full value used is the inhibitor-free reaction. The pharmacological zero value used is Olaparib (LClabs, Woburn, US) in a final concentration of 1 The inhibitory values (IC50) are determined using either the program Symyx Assay Explorer® or Condosseo® from GeneData.

tankyrase 1/2 = experiment: Cellular inhibition of tankyrase: increase of Axin2 level in DLD1 cells (Luminex); assay type: cell-based; conditions: read-out: EC50 tankyrase 1/2 (cell assay), 24 hours
Protocol: Measurement of Cellular Inhibition of Tankyrase
Cells of the colon carcinoma cell line DLD1 are plated in 96 well plates with 1.5×10^4 cells per well. Next day, cells are treated with a serial dilution of test compound in seven steps as triplicates with a final DMSO concentration of 0.3%. After 24 hours, cells are lysed in lysis buffer (20 mM Tris/HCl pH 8.0, 150 mM NaCl, 1% NP40, 10% Glycerol) and lysates are cleared by centrifugation through a 96 well filter plate (0.65 μm). […] The amount of isolated Axin2 protein is determined in a Luminex^200 machine (Luminex Corporation) according to the manufacturer's instruction by counting 100 events per well. […] For analysis, the obtained data are normalized against the untreated solvent control and fitted for determination of the EC50 values using the Assay Explorer software (Accelrys).

T1 sequence (O95271 1023-1327): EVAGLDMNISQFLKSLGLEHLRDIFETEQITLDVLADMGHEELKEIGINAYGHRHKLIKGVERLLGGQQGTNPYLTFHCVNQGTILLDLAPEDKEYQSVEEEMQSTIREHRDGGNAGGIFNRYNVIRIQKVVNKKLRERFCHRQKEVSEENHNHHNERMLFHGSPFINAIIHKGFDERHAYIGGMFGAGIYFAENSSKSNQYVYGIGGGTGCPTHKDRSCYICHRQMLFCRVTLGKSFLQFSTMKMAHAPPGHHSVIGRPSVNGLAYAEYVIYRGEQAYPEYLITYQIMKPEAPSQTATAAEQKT

Compound | IC50 [1] | IC50 (His-tagged Parp-1) | EC50 (tankyrase 1/2)
CCC(O)(CC)c1ccc(-c2nc3ccc(F)cc3c(=O)[nH]2)cc1 [Compound A14, 2-[4-(1-ethyl-1-hydroxy-propyl)phenyl]-6-fluoro-3H-quinazolin-4-one] | < 0.3 µM | 0.3 to 3 µM | < 0.3 µM
O=c1[nH]c(-c2ccc(C3(O)CCCC3)cc2)nc2ccc(F)cc12 [Compound A16, 6-fluoro-2-[4-(1-hydroxycyclopentyl)phenyl]-3H-quinazolin-4-one] | < 0.3 µM | 0.3 to 3 µM | 0.3 to 3 µM
Cc1cc(F)cc2c(=O)[nH]c(-c3ccc(N4CCC(CO)CC4)cc3)nc12 [Compound A31, 6-fluoro-2-[4-(4-hydroxymethyl-piperidin-1-yl)-phenyl]-8-methyl-3H-quinazolin-4-one] | < 0.3 µM | 0.3 to 3 µM | < 0.3 µM
Cc1cc(F)cc2c(=O)[nH]c(-c3ccc(N4CCC(O)CC4)cc3)nc12 [Compound A29, 6-fluoro-2-[4-(4-hydroxy-piperidin-1-yl)-phenyl]-8-methyl-3H-quinazolin-4-one] | < 0.3 µM | < 0.3 µM | < 0.3 µM
CC(C)(O)c1ccc(-c2nc3c(F)cc(F)c(F)c3c(=O)[nH]2)cc1 [Compound A26, 5,6,8-trifluoro-2-[4-(1-hydroxy-1-methyl-ethyl)-phenyl]-3H-quinazolin-4-one] | < 0.3 µM | 0.3 to 3 µM | < 0.3 µM
